Data from ChEMBL document CHEMBL1201862, “PubChem BioAssay data set” (2004).
Where a name gives a salt, the structure may show the parent alone. The source made the active and inactive calls. Rule as the data show it, for most assays here: actives have a measured EC50 and inactives only a lower limit.

Columns and labels:
cells = assay type: functional
[1] = target: T1, Replicative DNA helicase DnaB (Mycobacterium tuberculosis, UniProt P9WMR3); experiment: DnaB intein splicing inhibitors, dose response, biochemical, cell-free fluorescence (AID 449749); assay type: functional
T1 sequence (P9WMR3 whole entry): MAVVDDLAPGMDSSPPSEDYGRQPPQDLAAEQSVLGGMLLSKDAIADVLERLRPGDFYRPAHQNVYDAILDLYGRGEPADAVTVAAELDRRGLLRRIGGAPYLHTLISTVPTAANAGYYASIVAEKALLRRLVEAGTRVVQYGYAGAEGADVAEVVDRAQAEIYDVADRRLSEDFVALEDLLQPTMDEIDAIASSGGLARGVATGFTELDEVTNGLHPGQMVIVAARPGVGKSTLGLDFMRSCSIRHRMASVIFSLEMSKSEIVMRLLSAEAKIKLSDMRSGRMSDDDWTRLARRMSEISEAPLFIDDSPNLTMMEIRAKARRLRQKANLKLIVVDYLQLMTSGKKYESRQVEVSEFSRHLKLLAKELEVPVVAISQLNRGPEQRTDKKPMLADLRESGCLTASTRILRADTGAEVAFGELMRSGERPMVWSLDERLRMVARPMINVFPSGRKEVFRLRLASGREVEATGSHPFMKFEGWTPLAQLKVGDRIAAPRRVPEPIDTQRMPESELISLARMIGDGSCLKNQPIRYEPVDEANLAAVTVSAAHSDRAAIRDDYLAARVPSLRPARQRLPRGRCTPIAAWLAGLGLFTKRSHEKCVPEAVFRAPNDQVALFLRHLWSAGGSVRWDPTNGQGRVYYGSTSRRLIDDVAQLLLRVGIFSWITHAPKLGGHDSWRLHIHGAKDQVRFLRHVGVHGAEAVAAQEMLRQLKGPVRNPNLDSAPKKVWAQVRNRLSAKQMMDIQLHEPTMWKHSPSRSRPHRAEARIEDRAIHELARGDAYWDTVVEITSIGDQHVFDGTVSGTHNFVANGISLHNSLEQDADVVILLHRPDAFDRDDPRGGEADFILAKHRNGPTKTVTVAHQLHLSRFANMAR

Protein RecA = target: T2, Protein RecA (Mycobacterium tuberculosis, UniProt P9WHJ3); experiment: Fluorescence Cell-Free Homogeneous Dose Retest to Identify Inhibitors of RecA-Intein Splicing Activity. [Related pubchem assays (depositor defined):AID2097, AID2223, AID489010, AID492950]; assay type: functional
T2 sequence (P9WHJ3 whole entry): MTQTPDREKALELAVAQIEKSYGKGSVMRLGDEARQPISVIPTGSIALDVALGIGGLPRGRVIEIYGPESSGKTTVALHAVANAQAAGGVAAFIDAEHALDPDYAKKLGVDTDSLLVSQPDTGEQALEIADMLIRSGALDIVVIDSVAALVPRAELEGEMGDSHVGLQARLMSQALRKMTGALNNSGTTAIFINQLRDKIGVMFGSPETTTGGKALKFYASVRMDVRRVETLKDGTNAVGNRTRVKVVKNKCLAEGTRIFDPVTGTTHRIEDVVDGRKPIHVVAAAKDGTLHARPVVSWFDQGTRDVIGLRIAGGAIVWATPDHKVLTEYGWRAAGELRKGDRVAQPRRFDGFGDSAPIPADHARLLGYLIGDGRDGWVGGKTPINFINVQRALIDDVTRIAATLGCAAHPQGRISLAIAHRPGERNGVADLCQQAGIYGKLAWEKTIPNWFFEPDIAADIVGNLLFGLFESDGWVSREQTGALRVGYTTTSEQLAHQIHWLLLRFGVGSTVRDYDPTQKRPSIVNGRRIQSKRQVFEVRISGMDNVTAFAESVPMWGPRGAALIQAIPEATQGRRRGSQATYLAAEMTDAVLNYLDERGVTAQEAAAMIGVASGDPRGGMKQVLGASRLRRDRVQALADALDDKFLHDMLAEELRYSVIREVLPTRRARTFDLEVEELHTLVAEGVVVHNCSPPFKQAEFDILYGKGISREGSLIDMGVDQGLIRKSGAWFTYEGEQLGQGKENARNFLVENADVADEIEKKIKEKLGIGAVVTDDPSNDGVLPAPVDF

[2] = Luminescence Cell-Based Dose Confirmation HTS to Identify Activators of 5'UTR Stem-Loop Driven Alpha-Synuclein mRNA Translation in H4 Neuroglioblastoma Cells. [Related pubchem assays: 1829 (Project Summary), 1814 (Primary HTS)]; assay type: functional
[3] = Luminescence Cell-Based Dose Response HTS to Identify Activators of Luciferase Translation or Activity in H4 […] Cells. [Related pubchem assays: 1829 (Project Summary), 1814 (Primary HTS)]; assay type: functional
H4 = experiment: Luminescence Cell-Based Dose Response HTS to Identify Activators of 5'UTR Stem-Loop Driven Prion Protein mRNA Translation in H4 Neuroglioblastoma Cells. [Related pubchem assays: 1829 (Project Summary), 1814 (Primary HTS)]; assay type: functional; details: Homo sapiens
[4] = target: T3, Corticotropin-releasing factor receptor 2/Corticotropin-releasing factor-binding protein (Homo sapiens, UniProt P24387+Q13324); experiment: Dose Response confirmation of uHTS hits for small molecule antagonists of the CRF-binding protein and CRF-R2 receptor complex.; assay type: functional; details: read-out: IC50_Mean
T3 sequence (Q13324 whole entry): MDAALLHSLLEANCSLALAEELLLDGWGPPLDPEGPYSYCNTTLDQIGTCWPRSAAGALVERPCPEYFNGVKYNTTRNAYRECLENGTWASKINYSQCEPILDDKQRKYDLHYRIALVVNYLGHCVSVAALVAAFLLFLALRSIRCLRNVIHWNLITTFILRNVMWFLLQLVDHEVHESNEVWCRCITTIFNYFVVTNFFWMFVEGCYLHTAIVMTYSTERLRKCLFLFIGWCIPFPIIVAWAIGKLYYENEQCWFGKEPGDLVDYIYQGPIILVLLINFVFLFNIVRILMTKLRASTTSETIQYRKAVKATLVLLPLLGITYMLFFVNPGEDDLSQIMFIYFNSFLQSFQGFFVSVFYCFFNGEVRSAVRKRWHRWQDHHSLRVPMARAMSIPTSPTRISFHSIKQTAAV
T3 sequence (P24387 whole entry): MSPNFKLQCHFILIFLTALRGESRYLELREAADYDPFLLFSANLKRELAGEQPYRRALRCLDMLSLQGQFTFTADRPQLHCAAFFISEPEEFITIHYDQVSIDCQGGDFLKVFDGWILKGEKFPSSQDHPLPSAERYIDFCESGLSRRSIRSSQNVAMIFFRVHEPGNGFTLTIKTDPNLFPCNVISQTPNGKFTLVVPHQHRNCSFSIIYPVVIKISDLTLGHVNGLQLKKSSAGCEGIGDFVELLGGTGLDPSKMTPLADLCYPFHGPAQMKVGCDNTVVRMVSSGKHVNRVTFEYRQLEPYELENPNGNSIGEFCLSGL

[5] = target: T3, Corticotropin-releasing factor receptor 2/Corticotropin-releasing factor-binding protein; experiment: activators of CRF receptor 2 with binding protein – uHTS hits, confirmation (AID 602473); assay type: functional; details: read-out: EC50_Mean
[6] = inhibitors of intracellular T. cruzi replication, confirmation, NIH3T3 host cells, beta-gal luminescence (AID 2044); assay type: functional, cell-based;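 also: intracellular parasites grown in NIH/3T3 mouse fibroblasts as host cells; luminescent beta-galactosidase reporter signal from transgenic T. cruzi replicating inside host cells; inhibitors lower the luminescence signal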
[7] = cytotoxicity toward NIH3T3 fibroblasts, dose response, counter-screen, cell-based, ATP luminescence, mouse fibroblasts (AID 2010); assay type: functional;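 also: cells exposed to compound for about 90 hours before reading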

Cc1nnc(N/N=C/c2cccc(OCc3ccc(Cl)c(Cl)c3)c2)n1N
IC50 (cells): 5.42 µM (active) | AC50 [1]: 8.86 µM (active) | EC50 (Protein RecA): 4.81 µM (active)

Cc1ccc(C(=O)O/N=C(\N)Cc2ccc([N+](=O)[O-])cc2)c(Cl)c1
EC50 [2]: > 120 µM (not active) | EC50 [3]: > 120 µM (not active) | EC50 (H4): 28.6 µM (active)

Cc1cc(N2CCN(C)CC2)nc2ccc(NC(=O)CCC(=O)NCCCOC(C)C)cc12
IC50 [4]: > 47.1 µM (inactive) | EC50 [5]: > 53 µM (inactive)

O=C(O)C1=CCCNC1 [GUVACINE HYDROCHLORIDE]
IC50 [4]: > 47.1 µM (inactive) | EC50 [5]: > 53 µM (inactive)

CCN(CC)C(=O)CCc1nnc(Cc2cccc(C(F)(F)F)c2)o1
EC50 [2]: 12.5 µM (active) | EC50 [3]: 14.5 µM (active) | EC50 (H4): > 120 µM (not active)

CCOc1c(C)cc(-c2ncccc2O)cc1C
IC50 [4]: > 47.1 µM (inactive) | EC50 [5]: > 53 µM (inactive)

COc1cc(/C=N\NC(=O)c2ccccc2F)ccc1Oc1ccc([N+](=O)[O-])cn1
AC50 [1]: 133 µM (active) | EC50 (Protein RecA): > 380 µM (inactive)

Cc1cc(NC(=O)Cc2ccccc2)ccc1NC(=O)c1cccs1
IC50 [4]: > 47.1 µM (inactive) | EC50 [5]: > 53 µM (inactive)

CCCc1n[nH]c2c1C(CCC)C(C#N)=C(N)O2 (centres undefined)
AC50 [1]: 20.5 µM (active) | EC50 (Protein RecA): 7.46 µM (active)

O=C(c1ccc(N2CCNCC2)cc1)c1cccnc1
IC50 [4]: > 47.1 µM (inactive) | EC50 [5]: > 53 µM (inactive)

CCCn1c(=O)c2ccccc2n2c(SCc3nc4ccccc4s3)nnc12
EC50 [2]: 0.359 µM (active) | EC50 [3]: 29.2 µM (active) | EC50 (H4): 5.47 µM (active)

Cc1nc(-c2ccccc2)nc2[nH]c(=O)n(-c3ccccc3)c(=O)c12
EC50 [2]: 16.6 µM (active) | EC50 [3]: 8.63 µM (active) | EC50 (H4): > 120 µM (not active)

N#Cc1c(N)nc2c(c1N)CC(COc1ccccc1)O2 (centres undefined)
EC50 [2]: 47.2 µM (active) | EC50 [3]: 20.2 µM (active) | EC50 (H4): 10.7 µM (active)

COc1ccc(CNC(=O)CCc2nc3cc(S(=O)(=O)N(C)C)ccc3n2C)cc1OC
IC50 [4]: > 47.1 µM (inactive) | EC50 [5]: > 53 µM (inactive)

COc1ccc(CNC(=O)C(c2ccc(C)o2)N(C(=O)c2snc(C(N)=O)c2N)c2ccccc2OC)cc1 (centres undefined)
AC50 [1]: > 380 µM (inactive) | EC50 (Protein RecA): > 380 µM (inactive)

c1ccn2c(SCc3cn4ccsc4n3)nnc2c1
EC50 [2]: 0.408 µM (active) | EC50 [3]: 2.4 µM (active) | EC50 (H4): 108 µM (active)

NC(=O)CS(=O)(=O)c1nc2ccccc2n1Cc1ccccc1F
IC50 [4]: > 47.1 µM (inactive) | EC50 [5]: > 53 µM (inactive)

COc1ccc(NC(=O)CN2CCCC2c2cccs2)cc1S(=O)(=O)N1CCCCC1 (centres undefined)
IC50 [4]: > 47.1 µM (inactive) | EC50 [5]: > 53 µM (inactive)

C/C(=N\NC(=O)CC#N)c1cc2ccccc2oc1=O
AC50 [1]: 3.44 µM (active) | EC50 (Protein RecA): 2.97 µM (active)

CC(Nc1ccc(Br)cc1)C(=O)Nc1cccc(S(=O)(=O)N2CCOCC2)c1 (centres undefined)
IC50 [4]: > 47.1 µM (inactive) | EC50 [5]: > 53 µM (inactive)

Fc1cccc(CSc2nc3cc[nH]cc-3n2)c1
EC50 [2]: 39.2 µM (active) | EC50 [3]: 38.2 µM (active) | EC50 (H4): 19.2 µM (active)

CCN1CCN(C(=O)c2ccc3c(=O)n(CCc4ccccc4)c(=O)[nH]c3c2)CC1
EC50 [2]: 107 µM (active) | EC50 [3]: 63.3 µM (active) | EC50 (H4): 10.2 µM (active)

c1ccc2c(COn3nnc4ccccc43)cccc2c1
EC50 [2]: 28.7 µM (active) | EC50 [3]: > 120 µM (not active) | EC50 (H4): > 120 µM (not active)

CC1=CC(C)(C)N=C(Nc2ccc(C)cc2)S1
EC50 [2]: 15.2 µM (active) | EC50 [3]: 12.6 µM (active) | EC50 (H4): 24.4 µM (active)

CCOC(=O)c1nnc(-c2ccccc2)nc1N1CC(C)OC(C)C1 (centres undefined)
IC50 [4]: > 47.1 µM (inactive) | EC50 [5]: > 53 µM (inactive)

COc1ccc(Oc2nccc(-c3ccccc3)c2C#N)cc1
EC50 [3]: 9.77 µM (active) | EC50 (H4): 11.8 µM (active) | IC50 [4]: 30.7 µM (active) | EC50 [5]: > 53 µM (inactive)

O=C(CSc1ncnc2ccccc12)c1ccc2c(c1)OCCO2
EC50 [2]: 12.9 µM (active) | EC50 [3]: 90.6 µM (active) | EC50 (H4): > 120 µM (not active)

Cn1cccc1C(=O)OCC(=O)Nc1ccc2c(c1)CCC2
EC50 [2]: 6.37 µM (active) | EC50 [3]: 14.5 µM (active) | EC50 (H4): 47.9 µM (inconclusive)

O=C(Oc1ccccc1C(=O)Nc1ccccc1)c1ccccc1Br
AC50 [1]: 7.25 µM (active) | EC50 (Protein RecA): 8.13 µM (active)

COc1ccccc1NS(=O)(=O)c1ccc(N/N=C/c2c(C)nn(-c3ccccc3)c2N2CCCC2)c([N+](=O)[O-])c1
EC50 [6]: 0.501 µM (active) | EC50 [7]: > 60 µM (not active) | IC50 [4]: > 47.1 µM (inactive) | EC50 [5]: > 53 µM (inactive)

O=C(Nc1cc(C(F)(F)F)ccc1-n1cncn1)c1ccc(Cl)cc1
IC50 [4]: > 47.1 µM (inactive) | EC50 [5]: > 53 µM (inactive)
